Earlier results in patent publication US20090311335A1, “COMBINATION OF A TRIPTAN AND AN NSAID” (priority 2008, published 2009).

Tests used:
[1] = single intravenous dose, range 5 to 60 mg
[2] = oral 75 mg or 150 mg, dual-release formulation

Row | SMILES | solubility in methanol (methanol) | solubility in strong acids and bases (strong acids and bases) | solubility in water (water) | dose proportionality of pharmacokinetics [1] | efficacy and tolerability in acute treatment of migraine attacks [2]
1 | Cc1cnc(NC(=O)C2=C(O)c3ccccc3S(=O)(=O)N2C)s1 [Meloxicam, 4-hydroxy-2-methyl-N-(5-methyl-2-thiazolyl-)-2-H-1,2-benzothiazine-3-carboxamide 1,1-dioxide] | very slightly soluble | higher solubility | practically insoluble | dose-proportional | –
2 | CC(C(=O)O)c1cccc(C(=O)c2ccccc2)c1 (centres unmarked) [ketoprofen] | – | – | – | – | effective and well-tolerated
